Source: publication PMC4014698 (Pharmaceuticals, 2014)
In brackets after ≈: the same amount, converted by molar mass. Non-standard residues stand in square brackets, D forms with d. Residues, ends and D or L forms follow the SMILES beside them.

Columns and labels:
A. baumannii strain 821 = assay: MIC, microtiter dilution; assay type: cell-based, Acinetobacter baumannii; details: source urine; Mueller-Hinton medium, 37 °C, 24 h, 5 × 10^5 CFU/mL; three sets of determinations
Text: (§1) All the A. baumannii strains used in this study were (1) obtained from the collection of Dr. Anthony A. Campagnari at the University of Buffalo and originally isolated from different patients and organs/tissues (strain 649, blood; strain 689, groin; strain 759, gluteus; strain 821, urine; strain 884, axilla; strain 899, perineum; strain 964, throat; strain 985, pleural fluid and strain 1012, sputum); (2) were purchased from the American Type Culture Collection (ATCC, Manassas, VA, USA) (strain ATCC 17978, fatal meningitis; and strain ATCC 19606, urine).
(§2) The minimal inhibitory concentration (MIC) is defined as the lowest peptide concentration that inhibited bacterial growth. MICs were measured by a standard microtiter dilution method in Mueller Hinton (MH) medium. Briefly, cells were grown overnight at 37 °C in MH broth and were diluted in the same medium. Serial dilutions of the peptides were added to the microtiter plates in a volume of 50 µL, followed by the addition of 50 µL of bacteria to give a final inoculum of 5 × 10^5 colony-forming units (CFU)/mL. The plates were incubated at 37 °C for 24 h, and the MICs were determined.

A. baumannii strain 884 = assay: MIC, microtiter dilution; assay type: cell-based, Acinetobacter baumannii; details: source axilla; Mueller-Hinton medium, 37 °C, 24 h, 5 × 10^5 CFU/mL; three sets of determinations
Text: as §1, §2

[1] = tested on: A. baumannii strain ATCC 19606; assay: MIC, microtiter dilution; assay type: cell-based, Acinetobacter baumannii; details: source urine; Mueller-Hinton medium, 37 °C, 24 h, 5 × 10^5 CFU/mL; three sets of determinations
Text: as §1, §2

A. baumannii strain 759 = assay: MIC, microtiter dilution; assay type: cell-based, Acinetobacter baumannii; details: source gluteus; Mueller-Hinton medium, 37 °C, 24 h, 5 × 10^5 CFU/mL; three sets of determinations
Text: as §1, §2

A. baumannii strain 649 = assay: MIC, microtiter dilution; assay type: cell-based, Acinetobacter baumannii; details: source blood; Mueller-Hinton medium, 37 °C, 24 h, 5 × 10^5 CFU/mL; three sets of determinations
Text: as §1, §2

[2] = tested on: Pseudomonas aeruginosa (6 different isolates); details: geometric mean of the MIC values from 6 different isolates of P. aeruginosa; Table 3B
Text: (§3) P. aeruginosa strains used are as follows: strain PAO1 was isolated from a human wound in 1955 in Australia; strain WR5 was isolated from a burn patient at Walter Reed Army Hospital, Washington, DC, USA, in 1976 and is a natural toxA^− mutant, but is virulent in experimental mouse models; strain PAK was originally isolated at Memorial University, St. John’s, Newfoundland, Canada, and is widely used in the analysis of pili; strain PA14 was originally isolated as a clinical isolate in 1995 at the Massachusetts General Hospital, Boston, MA, USA and is virulent in a variety of plant and animal models of infection; strain M2 was originally isolated in 1975 from the gastrointestinal tract of a healthy CF1 mouse, University of Cincinnati College of Medicine, and Shriners Burns Institute, Cincinnati, OH, USA and is virulent in a burn mouse model of P. aeruginosa infection; and strain CP204 was isolated from a cystic fibrosis patient in 1989 at the National Jewish Medical and Research Center, Denver, CO, USA. All strains have been maintained at −80 °C in the laboratory of Michael Vasil, University of Colorado, School of Medicine.
(§4) The minimal inhibitory concentration (MIC) is defined as the lowest peptide concentration that inhibited bacterial growth. MICs were measured by a standard microtiter dilution method in Mueller Hinton (MH) medium. Briefly, cells were grown overnight at 37 °C in MH broth and were diluted in the same medium. […] The plates were incubated at 37 °C for 24 h, and the MICs were determined.
Geometric mean of MIC values was calculated to provide an overall view of antimicrobial activity of different analogs.

[3] = tested on: P. aeruginosa strain PA14; details: Mueller-Hinton medium, 37 °C, 24 h, 5 × 10^5 CFU/mL; three sets of determinations
Text: as §3, §4

[4] = tested on: P. aeruginosa strain PAO1; details: source human wound; Mueller-Hinton medium, 37 °C, 24 h, 5 × 10^5 CFU/mL; three sets of determinations
Text: as §3, §4

P. aeruginosa strain WR5 = details: source burn patient; Mueller-Hinton medium, 37 °C, 24 h, 5 × 10^5 CFU/mL; three sets of determinations
Text: as §3, §4

[5] = tested on: P. aeruginosa strain CP204; details: source cystic fibrosis patient; Mueller-Hinton medium, 37 °C, 24 h, 5 × 10^5 CFU/mL; three sets of determinations
Text: as §3, §4

P. aeruginosa strain PAK = details: Mueller-Hinton medium, 37 °C, 24 h, 5 × 10^5 CFU/mL; three sets of determinations
Text: as §3, §4

P. aeruginosa strain M2 = details: source burn mouse model; Mueller-Hinton medium, 37 °C, 24 h, 5 × 10^5 CFU/mL; three sets of determinations
Text: as §3, §4

[6] = tested on: Acinetobacter baumannii (11 different isolates); assay type: cell-based; details: geometric mean of the MIC values from 11 different isolates of A. baumannii; Table 3A
Text: as §1, §2
Antibacterial activities against six strains of P. aeruginosa and eleven strains of A. baumannii are compared in Table 3. Geometric mean of MIC values was calculated to provide an overall view of antimicrobial activity of different analogs. It is clear that our peptides were effective in killing the microorganisms tested. Compared to a dramatic reduction in hemolytic activity, antibacterial activity of D-piscidin 1 and D-dermaseptin S4 analogs against eleven strains of A. baumannii maintained the same level (within 2-fold) upon the substitution of “specificity determinant(s)” (Table 3).

human erythrocytes = assay: Hemolytic activity (HC50); assay type: cell-based; details: for Hemolytic activity HC50: concentration giving 50% hemolysis after 18 h at 37 °C, 1% human erythrocytes in PBS pH 7.4, hemoglobin release at 570 nm, 100% control water (Figure 7)
Method: Hemoglobin release was determined spectrophotometrically at 570 nm.
From these plots, the HC50 values, the peptide concentration that produces 50% hemolysis of human red blood cells after 18 hours in the standard microtiter dilution method was determined.

A. baumannii strain 964 = assay type: cell-based, Acinetobacter baumannii; details: source throat; Mueller-Hinton medium, 37 °C, 24 h, 5 × 10^5 CFU/mL; three sets of determinations
Text: as §1, §2

A. baumannii strain 985 = assay type: cell-based, Acinetobacter baumannii; details: source pleural fluid; Mueller-Hinton medium, 37 °C, 24 h, 5 × 10^5 CFU/mL; three sets of determinations
Text: as §1, §2

A. baumannii strain 689 = assay type: cell-based, Acinetobacter baumannii; details: source groin; Mueller-Hinton medium, 37 °C, 24 h, 5 × 10^5 CFU/mL; three sets of determinations
Text: as §1, §2

[7] = tested on: A. baumannii strain ATCC 17978; assay type: cell-based, Acinetobacter baumannii; details: ATCC 17978, 24 h
Text: as §1, §2

A. baumannii strain 899 = assay type: cell-based, Acinetobacter baumannii; details: source perineum; Mueller-Hinton medium, 37 °C, 24 h, 5 × 10^5 CFU/mL; three sets of determinations
Text: as §1, §2

A. baumannii strain 1012 = assay type: cell-based, Acinetobacter baumannii; details: source sputum; Mueller-Hinton medium, 37 °C, 24 h, 5 × 10^5 CFU/mL; three sets of determinations
Text: as §1, §2

SMILES | MIC 821 (A. baumannii strain 821) | MIC 884 (A. baumannii strain 884) | MIC ATCC19606 [1] | MIC 759 (A. baumannii strain 759) | MIC 649 (A. baumannii strain 649) | MIC GM [2] | MIC PA14 [3] | MIC PAO1 [4] | MIC WR5 (P. aeruginosa strain WR5) | MIC CP204 [5] | MIC PAK (P. aeruginosa strain PAK) | MIC M2 (P. aeruginosa strain M2) | MIC GM [6] | Hemolytic activity HC50 (human erythrocytes) | MIC 964 (A. baumannii strain 964) | MIC 985 (A. baumannii strain 985) | MIC 689 (A. baumannii strain 689) | MIC ATCC17978 [7] | MIC 899 (A. baumannii strain 899) | MIC 1012 (A. baumannii strain 1012) | other results
CC[C@@H](C)[C@@H](NC(=O)[C@@H](Cc1c[nH]cn1)NC(=O)[C@@H](Cc1c[nH]cn1)NC(=O)[C@@H](Cc1ccccc1)NC(=O)[C@H](N)Cc1ccccc1)C(=O)N[C@H](Cc1ccccc1)C(=O)N[C@H](CCCNC(=N)N)C(=O)NCC(=O)N[C@H](CCCCN)C(=O)N[C@@H](C(=O)N[C@H](Cc1c[nH]cn1)C(=O)N[C@@H](C(=O)NCC(=O)N[C@H](CCCCN)C(=O)N[C@@H](C(=O)N[C@@H](C(=O)N[C@H](Cc1c[nH]cn1)C(=O)N[C@H](CCCNC(=N)N)C(=O)N[C@H](CC(C)C)C(=O)N[C@@H](C(=O)N[C@@H](C(=O)NCC(N)=O)[C@H](C)O)C(C)C)[C@H](C)CC)[C@H](C)O)C(C)C)C(C)C [D-Piscidin 1 I9K] (H-[dF][dF][dH][dH][dI][dF][dR]G[dK][dV][dH][dV]G[dK][dT][dI][dH][dR][dL][dV][dT]G-NH2) | 3.0 µM (≈ 7.76 µg/mL) | 3.0 µM (≈ 7.76 µg/mL) | 1.5 µM (≈ 3.88 µg/mL) | 3.0 µM (≈ 7.76 µg/mL) | 3.0 µM (≈ 7.76 µg/mL) | 30.5 µM (≈ 78.9 µg/mL) | 24.2 µM (≈ 62.6 µg/mL) | 48.3 µM (≈ 125 µg/mL) | 24.2 µM (≈ 62.6 µg/mL) | 48.3 µM (≈ 125 µg/mL) | 12.1 µM (≈ 31.3 µg/mL) | 48.3 µM (≈ 125 µg/mL) | 3.0 µM (≈ 7.76 µg/mL) | 98 µM | 3.0 µM (≈ 7.76 µg/mL) | 3.0 µM (≈ 7.76 µg/mL) | 3.0 µM (≈ 7.76 µg/mL) | 3.0 µM (≈ 7.76 µg/mL) | 3.0 µM (≈ 7.76 µg/mL) | 6.0 µM (≈ 15.5 µg/mL) | Hemolytic activity Fold improvement in HC50 (human erythrocytes): 54 fold; Hemolytic activity HC50, 18 hours (Figure 8 comparison) (human erythrocytes; 18 hours at 37 °C, human red blood cells, Figure 8, 100% control 0.1% Triton-X 100): 115 µM
CC[C@@H](C)[C@@H](NC(=O)CNC(=O)[C@@H](CCCNC(=N)N)NC(=O)[C@@H](Cc1ccccc1)NC(=O)[C@H](NC(=O)[C@@H](Cc1c[nH]cn1)NC(=O)[C@@H](Cc1c[nH]cn1)NC(=O)[C@@H](Cc1ccccc1)NC(=O)[C@H](N)Cc1ccccc1)[C@H](C)CC)C(=O)N[C@@H](C(=O)N[C@H](Cc1c[nH]cn1)C(=O)N[C@H](CCCCN)C(=O)NCC(=O)N[C@H](CCCCN)C(=O)N[C@@H](C(=O)N[C@@H](C(=O)N[C@H](Cc1c[nH]cn1)C(=O)N[C@H](CCCNC(=N)N)C(=O)N[C@H](CC(C)C)C(=O)N[C@@H](C(=O)N[C@@H](C(=O)NCC(N)=O)[C@H](C)O)C(C)C)[C@H](C)CC)[C@H](C)O)C(C)C [D-Piscidin 1 V12K] (H-[dF][dF][dH][dH][dI][dF][dR]G[dI][dV][dH][dK]G[dK][dT][dI][dH][dR][dL][dV][dT]G-NH2) | 3.0 µM (≈ 7.8 µg/mL) | 3.0 µM (≈ 7.8 µg/mL) | 3.0 µM (≈ 7.8 µg/mL) | 3.0 µM (≈ 7.8 µg/mL) | 3.0 µM (≈ 7.8 µg/mL) | 17.0 µM (≈ 44.2 µg/mL) | 24.0 µM (≈ 62.4 µg/mL) | 24.0 µM (≈ 62.4 µg/mL) | 12.0 µM (≈ 31.2 µg/mL) | 24.0 µM (≈ 62.4 µg/mL) | 6.0 µM (≈ 15.6 µg/mL) | 24.0 µM (≈ 62.4 µg/mL) | 2.8 µM (≈ 7.28 µg/mL) | 35 µM | 3.0 µM (≈ 7.8 µg/mL) | 1.5 µM (≈ 3.9 µg/mL) | 3.0 µM (≈ 7.8 µg/mL) | 3.0 µM (≈ 7.8 µg/mL) | 3.0 µM (≈ 7.8 µg/mL) | 3.0 µM (≈ 7.8 µg/mL) | 
CC[C@@H](C)[C@@H](NC(=O)CNC(=O)[C@@H](CCCNC(=N)N)NC(=O)[C@@H](Cc1ccccc1)NC(=O)[C@H](NC(=O)[C@@H](Cc1c[nH]cn1)NC(=O)[C@@H](Cc1c[nH]cn1)NC(=O)[C@@H](Cc1ccccc1)NC(=O)[C@H](N)Cc1ccccc1)[C@H](C)CC)C(=O)N[C@@H](C(=O)N[C@H](Cc1c[nH]cn1)C(=O)N[C@@H](C(=O)NCC(=O)N[C@H](CCCCN)C(=O)N[C@@H](C(=O)N[C@@H](C(=O)N[C@H](Cc1c[nH]cn1)C(=O)N[C@H](CCCNC(=N)N)C(=O)N[C@H](CC(C)C)C(=O)N[C@@H](C(=O)N[C@@H](C(=O)NCC(N)=O)[C@H](C)O)C(C)C)[C@H](C)CC)[C@H](C)O)C(C)C)C(C)C [D-Piscidin 1] (H-[dF][dF][dH][dH][dI][dF][dR]G[dI][dV][dH][dV]G[dK][dT][dI][dH][dR][dL][dV][dT]G-NH2) | 3.0 µM (≈ 7.71 µg/mL) | 3.0 µM (≈ 7.71 µg/mL) | 3.0 µM (≈ 7.71 µg/mL) | 3.0 µM (≈ 7.71 µg/mL) | 3.0 µM (≈ 7.71 µg/mL) | 19.3 µM (≈ 49.6 µg/mL) | 24.3 µM (≈ 62.5 µg/mL) | 24.3 µM (≈ 62.5 µg/mL) | 12.2 µM (≈ 31.4 µg/mL) | 24.3 µM (≈ 62.5 µg/mL) | 12.2 µM (≈ 31.4 µg/mL) | 24.3 µM (≈ 62.5 µg/mL) | 2.8 µM (≈ 7.2 µg/mL) | 1.8 µM | 3.0 µM (≈ 7.71 µg/mL) | 1.5 µM (≈ 3.86 µg/mL) | 1.5 µM (≈ 3.86 µg/mL) | 3.0 µM (≈ 7.71 µg/mL) | 3.0 µM (≈ 7.71 µg/mL) | 6.1 µM (≈ 15.7 µg/mL) | Hemolytic activity Fold improvement in HC50 (human erythrocytes): 1.0 fold
